Patent US20220000817A1, “PROGNOSIS AND TREATMENT OF METASTATIC CANCER” (Academia Sinica, priority 2018, published 2022)

Assays:
EFHD2 [1] = test: Western blot of EFHD2 expression in cancer cells; type: cell-based, human; conditions: H1299 and F4 cells
Method: Cell lines and cell culture. Human lung adenocarcinoma cells A549 and H1299 were obtained from the American Type Culture Collection (ATCC, Maryland, USA). Human lung adenocarcinoma cell lines CL1-0 were from National Taiwan University Hospital, Taipei, Taiwan. Cell line CL1-5-F4 (F4) was established by selection of increasingly invasive cell populations from CL1-0 in according to procedures described by Chu Y W et al (Am J Respir Cell Mol Biol (1997) 17:353-360). H1299 and F4 cells were cultured in DMEM/F-12 media (Invitrogen). A549 and CL1-0 cells were maintained in RPMI 1640 media (Invitrogen). All culture media were supplemented with 10% fetal bovine serum and 1% antibiotics (GIBCO). All cells were grown in a humidified atmosphere of 5% CO2 and 95% air at 37° C. Western blot analysis. Proteins were separated using 10% or 12.5% SDS-PAGE and transferred onto a PVDF membrane via electroblotting at […] at 4° C. for 3 hr in 25 mmol/L Tris-HCl, 197 mmol/L glycine, and 13.3% (v/v) methanol. Then, 5% (w/v) skim milk in TBST was used for the blocking reaction, and the primary antibodies were incubated at room temperature overnight. After TBST washes, horseradish peroxidase-conjugated secondary antibodies were further incubated at room temperature for 1 hr. […] The primary antibodies used in this study included EFHD2 (ab106667; abcam), E-cadherin (#5296; Cell Signaling), vimentin (#3932; Cell Signaling), CAV1 (#3238; Cell Signaling), and β-actin (ab8226; abeam). […] Results are illustrated in FIG. 4.

H1299 and F4 cells = test: Migration and invasion by matrigel transwell system; type: cell-based, human
Method: FIG. 5 Ibuprofen reduced EFHD2 expression in cancer cells. (A) The effect of various doses of ibuprofen on EFHD2 in H1299 and F4 cells were respectively determined by Western blot assay; (B) The effects of ibuprofen on the invasion and migration ability of H1299 and F4 cells were analyzed by matrigel transwell system. Wound healing assay. The in vitro migration assay was performed using a Culture-Insert well (ibidi GmbH, German/v). Cancer cells (4.5×10^4 cells) were cultured in suitable media in the device for 24 hr. After removal of the Culture-Insert, cancer cells were cultured for an additional 8 hr. The migration distance of cancer cells was recorded, and the migration area was measured using ImageJ software. Matrigel invasion assay. For in vitro invasion assay, cancer cells (1.5×10^5 cells in 200 μL) were suspended in the upper half of a PET membrane transwell insert chamber (BD Biosciences), which was coated with Matrigel (1 mg/mL; BD Biosciences), on a 24-well plate. Medium supplemented with 10% FBS was added as a chemoattractant to the lower half After incubation at 37° C. for 24 hr, cancer cells that passed through the insert were fixed with 3.7% formalin (Sigma-Aldrich) and stained with 0.1% crystal violet (Sigma-Aldrich).

EFHD2 mRNA = test: qPCR of EFHD2 mRNA levels with or without ibuprofen; type: cell-based, human; conditions: data not shown
EFHD2 [2] = test: Ibuprofen-induced EFHD2 degradation with proteasome/lysosome inhibitors, western blot; type: cell-based, human; conditions: H1299 cells, 600 μM ibuprofen
Method: FIG. 6. Ibuprofen activates both proteasomal and lysosomal degradation of EFHD2. H1299 cells were pretreated with MG132 and/or Baf-A1 for 0.5 hr, then followed by the treatment of 600 μM ibuprofen for the indicated time. EFHD2 expression was determined by western blot assay.
Western blot analysis. Proteins were separated using 10% or 12.5% SDS-PAGE and transferred onto a PVDF membrane via electroblotting at 400V at 4° C. for 3 hr in 25 mmol/L Tris-HCl, 197 mmol/L glycine, and 13.3% (v/v) methanol. Then, 5% (w/v) skim milk in TBST was used for the blocking reaction, and the primary antibodies were incubated at room temperature overnight. After TBST washes, horseradish peroxidase-conjugated secondary antibodies were further incubated at room temperature for 1 hr. […] The primary antibodies used in this study included EFHD2 (ab106667; abcam), E-cadherin (#5296; Cell Signaling), vimentin (#3932; Cell Signaling), CAV1 (#3238; Cell Signaling), and β-actin (ab8226; abeam).
As ubiquitin-proteasome pathway and autophagy-lysosome pathway are two major systems responsible for cellular protein degradation, we then investigated whether any of the two systems has involved in ibuprofen-mediated EFHD2 degradation.

H1299 cells [3] = test: MTT cell survival, H1299 shGFP / shEFHD2 cells; type: cell-based, human
Method: MTT assay was used to determine cell survival ratio in the control cells (H1299^shGFP) or cells having the expression of EFHD2 being knock-out via interference RNA (H1299^shEFHD2) with or without the treatment of ibuprofen and/or cisplatin.
(§1) MTT assay. […] The absorbance of the solution at 570 nm was measured by spectrophotometer.
In this example, the mechanism of ibuprofen and its combination with a chemotherapeutic drug (i.e., cisplatin) were investigated via comparing their actions on the survival of H1299 cells in the presence or absence of EFHD2. To this purpose, H1299 cells were pre-treated with the present shRNA (i.e., H1299^shEFHD2) to knockdown the expression of EFHD2 in H1299 cells in accordance with procedures described in Example 1; and the control cells were pre-treated with shGFP. Results are depicted in FIG. 7.

A549 cells = test: MTT cell survival, A549 pcDNA / pEFHD2 cells; type: cell-based, human
Method: FIG. 8 Susceptibility of cancer cells lacking endogenous EFHD2 to chemotherapeutic drug is not enhanced by ibuprofen. MTT assay was used to determine cell survival ratio in the control cells (A549^pcDNA) or cells transfecting with vectors that carrying exogenous EFHD2 gene (A549^pEFHD2) with or without the treatment of ibuprofen and/or cisplatin.
as §1
In this example, instead of knocking down the endogenous EFHD2 expression via interference RNA, human lung adenocarcinoma cells A549 having low level of endogenous EFHD2 were used to further elucidate the action of ibuprofen (i.e., enhancing the susceptibility of cancer cells to chemotherapeutic drugs). Results are illustrated in FIG. 8.

F4 cells = test: Sensitization of F4 cells to cisplatin by 2-APAs; type: cell-based, human; conditions: F4 cells pre-treated with 20 μM 2-APA, data not shown
Source text: In this example, the effect of 2-APAs (e.g., ibuprofen, flurbiprofen, naproxen and ketoprofen) and cisplatin on F4 cells were investigated.

H1299 cells [4] = test: H1299 xenograft mouse model, tumor size; type: in vivo, BALB/c nude mice; conditions: cisplatin 5 mg/Kg injection once per week for 3 weeks; ibuprofen 25 mg/Kg orally; alone or in combination
Source text: Animals. All procedures (2017-305) involving animal research were approved by the Institutional Animal Care and Use Committee (IACUC) at Chinese Medical University Hospital (CMUH) (Taichung, Taiwan). 5-week-old male BALB/c nude mice (18 to 25 g) were obtained from the National Laboratory Animal Center (Taipei, Taiwan). Mice were maintained in an environment under a 12: 12 hr light/dark cycle with access to food and water ad libitum.
BALB/c nude mice were orthotropically xenografted with H1299 cells (1×10^6 cells) by stereotactic injection in the back. Mouse tumor progression (including growth and metastasis) was measured by IVIS weekly until week 7.
In this example, in vivo effect of the combined treatment of ibuprofen and cisplatin was investigated via the xenograft mouse model established in accordance with the procedures described in the “Materials and methods” section. For treatment purpose, mice were treated with cisplatin (5 mg/Kg, via injection, once per week for 3 weeks) and ibuprofen (25 mg/Kg, orally fed, on the day when cisplatin was injected, and 1 day prior to, and 1 day after the cisplatin injection), alone or in combination. Mice were then sacrificed and the tumors were isolated and further analyzed. Results are depicted in FIG. 9.

H1299 cells [5] = test: Wound-healing migration and transwell invasion after EFHD2 knockdown; type: cell-based, human; conditions: EFHD2 knockdown in H1299 cells
Method: FIG. 1. EFHD2 increases the metastatic abilities of lung adenocarcinoma cells. The effects of EFHD2 overexpression in A549 cells and EFHD2-knockdown in H1299 cells on metastatic abilities were determined. (A) Migration ability was analyzed by wound-healing assay. (B) Invasive ability was analyzed by transwell invasion assay. (C) Invadopodia were visualized by colocalized of cortactin (green) and F-actin (red). (D) Quantification of cancer cells with invadopodia. N=100 cells/sample. **, P<0.01.
Wound healing assay. The in vitro migration assay was performed using a Culture-Insert well (ibidi GmbH, German/v). Cancer cells (4.5×10^4 cells) were cultured in suitable media in the device for 24 hr. After removal of the Culture-Insert, cancer cells were cultured for an additional 8 hr. The migration distance of cancer cells was recorded, and the migration area was measured using ImageJ software.
Matrigel invasion assay. For in vitro invasion assay, cancer cells (1.5×10^5 cells in 200 μL) were suspended in the upper half of a PET membrane transwell insert chamber (BD Biosciences), which was coated with Matrigel (1 mg/mL; BD Biosciences), on a 24-well plate. […]

H1299 cells [6] = test: MTT cell growth after EFHD2 knockdown; type: cell-based, human; conditions: EFHD2 knockdown in H1299 cells
Method: as §1
To determine whether EFHD2 contributes to the metastatic abilities of lung adenocarcinoma cells, the pcDNA vector was used to overexpress EFHD2 in A549 cells and shRNA (i.e., shEFHD2) to knockdown EFHD2 in H1299 cells.

| Compound | expression of EFHD2 (EFHD2 [1]) | level of EFHD2 (EFHD2 [1]; various doses of ibuprofen) | invasion ability (H1299 and F4 cells) | migration ability (H1299 and F4 cells) | EFHD2 mRNA levels (EFHD2 mRNA) | mechanism of EFHD2 degradation (EFHD2 [2]) | survival ratio, combination with cisplatin (H1299 cells [3]; H1299^shEFHD2 cells vs H1299^shGFP+ibuprofen) | survival ratio, combination with cisplatin (H1299 cells [3]; H1299^shGFP cells, ibuprofen (600 and cisplatin (1, 2, 5, 10 or 20 μM))) | susceptibility to cisplatin treatment (A549 cells; A549^pEFHD2 vs A549^pEFHD2+ibuprofen) | susceptibility to cisplatin treatment (A549 cells; A549^pcDNA vs A549^pcDNA+ibuprofen) | sensitivity to subsequent cisplatin treatment (cell death) (F4 cells) | size of the tumor (H1299 cells [4]) | invasiveness (H1299 cells [5]; transwell invasion assay) | migration (H1299 cells [5]; wound-healing assay) | cell growth (H1299 cells [6]) |
| --- | --- | --- | --- | --- | --- | --- | --- | --- | --- | --- | --- | --- | --- | --- | --- |
| CC(C)Cc1ccc(C(C)C(=O)O)cc1 (stereo not drawn) [ibuprofen] | effective in suppressing the expression of EFHD2 | reduce the level of EFHD2 in a dose-dependent manner | attenuated | attenuated | did not influence EFHD2 mRNA levels | both proteasomal- and lysosomal-dependent mechanism | comparable to the control cells subjecting to the same treatment | lower than those treated with cisplatin alone | failed to increase their susceptibilities to cisplatin | no enhanced susceptibility | more sensitive to the subsequent treatment of cisplatin | more effective than cisplatin |  |  |  |
| shEFHD2: short hairpin RNA directing cleavage of EFHD2 gene RNA; SEQ ID NO: 4, encoded by SEQ ID NO: 1 (GGCCCUCUUCUACAAGUUCGUCAUAGAGCUCUAUGACGAACUUGUAGAAGAGAAAAAAC; expressed or natural sequence) |  |  |  |  |  |  |  |  |  |  |  |  | opposite effects | opposite effects | did not obviously affect cell growth |
